Here are results for 15 compounds from patent US12441768B2, “Compositions and methods for treating endometriosis” (EndoMet Biosciences, Inc., priority 2018, dated 2025).

Data set [1] addresses Wnt-responsive promoter (TCF/LEF). Briefly: Wnt-dependent luciferase reporter assay. The format is cell-based, murine. A digest of the protocol: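 Murine 3T3 fibroblasts carrying a TCF/LEF-driven luciferase reporter, stimulated with Wnt3a in the presence of increasing peptide concentrations or vehicle. Luminescence inhibition gave EC50 values in uM.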
For a further data set, the target named is T1, β-catenin (Homo sapiens, UniProt P35222).
T1 sequence (P35222 1-781): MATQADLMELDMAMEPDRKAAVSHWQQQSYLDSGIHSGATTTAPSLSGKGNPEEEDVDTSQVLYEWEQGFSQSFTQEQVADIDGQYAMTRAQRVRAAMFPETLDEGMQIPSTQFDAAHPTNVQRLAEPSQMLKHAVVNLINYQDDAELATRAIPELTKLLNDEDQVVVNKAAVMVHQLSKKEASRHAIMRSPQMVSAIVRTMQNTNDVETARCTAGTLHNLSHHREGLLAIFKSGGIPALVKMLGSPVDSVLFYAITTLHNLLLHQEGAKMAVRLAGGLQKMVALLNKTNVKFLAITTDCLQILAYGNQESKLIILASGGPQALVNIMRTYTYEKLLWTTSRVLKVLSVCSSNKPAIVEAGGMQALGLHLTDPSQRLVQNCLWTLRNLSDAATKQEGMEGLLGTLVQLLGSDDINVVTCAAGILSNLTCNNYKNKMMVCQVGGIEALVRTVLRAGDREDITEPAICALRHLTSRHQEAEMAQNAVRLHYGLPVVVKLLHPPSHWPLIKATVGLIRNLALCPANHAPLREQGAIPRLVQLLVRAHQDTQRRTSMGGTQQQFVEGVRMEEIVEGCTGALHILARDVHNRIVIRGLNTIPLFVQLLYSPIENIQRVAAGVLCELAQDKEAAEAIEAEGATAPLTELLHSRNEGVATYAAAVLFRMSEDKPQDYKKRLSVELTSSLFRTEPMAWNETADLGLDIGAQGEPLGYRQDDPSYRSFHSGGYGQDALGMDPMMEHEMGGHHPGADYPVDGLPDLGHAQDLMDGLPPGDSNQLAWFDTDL
Briefly: KD50 measurement using competitive fluorescence polarization (FP) with labelled TCF4. Format: binding. The settings on record: fluorescence polarization, β-catenin; for Kd: read-out: β-Cat FP KD. The gist of the method: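 Polarization readout (470 nm excitation, 520 nm emission) tracks loss of labelled TCF4 binding to β-catenin as test compound competes. Conditions were 5 nM tracer, 100 nM β-catenin, room temperature, compound serially diluted from 10 nM to 30 uM; run in triplicate experiments.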

The conditions of data set [2]: % Viability non-Wnt responsive cells.

The structures appear in SMILES notation. Where a SMILES comes first, the peptide text is derived from it.

For the compound `CC[C@H](C)[C@@H]1NC(=O)[C@H](CC(C)C)NC(=O)[C@H](Cc2ccccc2)NC(=O)[C@H](Cc2c[nH]c3ccccc23)N(C)C(=O)[C@H](CCSC)NC(=O)[C@H](CCCNC(=N)N)NC(=O)[C@H]([C@@H](C)CC)NC(=O)[C@H](CCSC)NC(=O)[C@@H](N)CCCCNC(=O)CCCCCCCNC(=O)CNC(=O)[C@H](Cc2c[nH]c3ccccc23)NC(=O)[C@H](Cc2ccccc2)NC(=O)[C@H](CO)NC1=O` [compound 21] (HELM PEPTIDE1{K.M.I.R.M.[meW].F.L.I.S.F.W.G.[O=C(CCCCCCCN[*:1])[*:2]]}$PEPTIDE1,PEPTIDE1,1:R3-14:R2$$$V2.0), the EC50 in data set [1] was over 30 µM. In addition, the equilibrium dissociation constant (Kd) on β-catenin was over 30 µM. Moreover, in data set [2], the viability was 98.7%.

Turning to `CC[C@H](C)[C@@H]1NC(=O)[C@H](CC(C)C)NC(=O)[C@H](Cc2ccc(O)cc2)NC(=O)[C@H](Cc2c[nH]c3ccccc23)NC(=O)[C@H](CCSC)NC(=O)[C@H](CCCNC(=N)N)NC(=O)[C@H](CO)NC(=O)[C@@H](N)CCCCNC(=O)[C@H](Cc2c[nH]c3ccccc23)NC(=O)[C@H](Cc2ccccc2)NC(=O)[C@H](CO)NC1=O` [compound 32] (HELM PEPTIDE1{K.S.R.M.W.Y.L.I.S.F.W}$PEPTIDE1,PEPTIDE1,1:R3-11:R2$$$V2.0), the concentration for a half-maximal effect (EC50) in data set [1] was over 30 µM. Further, the dissociation constant Kd on β-catenin is over 30 µM. The viability in data set [2] worked out at 93%.

On to `CC[C@H](C)[C@H](NC(=O)[C@H](CC(C)C)NC(=O)[C@H](Cc1ccccc1)NC(=O)[C@H](Cc1c[nH]c2ccccc12)NC(=O)[C@H](CCSC)NC(=O)[C@H](CCCNC(=N)N)NC(=O)[C@H](CO)NC(=O)[C@@H](N)CCSC)C(=O)N[C@@H](CO)C(=O)N[C@@H](Cc1ccccc1)C(=O)N[C@@H](Cc1c[nH]c2ccccc12)C(=O)NCC(=O)O` [compound 41] (H-MSRMWFLISFWG-OH), for which the 50% effective concentration (EC50) in data set [1] was under 7.5 µM. For the same compound, the Kd at β-catenin is over 30 µM. In addition, in data set [2], the viability was 96.1%.

In data set [1], `CC[C@H](C)[C@H](NC(=O)[C@H](CC(C)C)NC(=O)[C@H](Cc1ccccc1)NC(=O)[C@H](Cc1c[nH]c2ccccc12)NC(=O)[C@H](CCSC)NC(=O)[C@H](CCCNC(=N)N)NC(=O)[C@H](CO)NC(=O)[C@@H](N)CCSC)C(=O)N[C@@H](CO)C(=O)N[C@@H](Cc1ccccc1)C(=O)N[C@@H](Cc1c[nH]c2ccccc12)C(=O)N[C@H](C(=O)NCC(=O)O)[C@@H](C)O` [compound 44] (H-MSRMWFLISFWTG-OH) displayed an EC50 of 15 to 22.5 µM. Moreover, the viability in data set [2] was found to be 102%.

Take `CC[C@H](C)[C@H](NC(=O)[C@H](CC(C)C)NC(=O)[C@H](Cc1ccccc1)NC(=O)[C@H](Cc1c[nH]c2ccccc12)NC(=O)[C@@H](N)CCSC)C(=O)N[C@@H](CO)C(=O)N[C@@H](Cc1ccccc1)C(=O)N[C@@H](Cc1c[nH]c2ccccc12)C(=O)N(C)[C@@H](C)C(=O)NCC(=O)O` [compound 45] (HELM PEPTIDE1{M.W.F.L.I.S.F.W.[meA].G}$$$$V2.0): in data set [1], the 50% effective concentration (EC50) was under 7.5 µM. Moreover, on β-catenin, the “β-Cat FP Hill slope” value was 0.9 and the Kd lay in the range of 0.4 to 1 µM. The viability in data set [2] worked out at 101%.

`CC[C@H](C)[C@H](NC(=O)[C@H](CC(C)C)NC(=O)[C@H](Cc1ccccc1)NC(=O)[C@H](Cc1c[nH]c2ccccc12)NC(=O)[C@H](CCSC)NC(=O)[C@H](CCCNC(=N)N)NC(=O)[C@H](CO)NC(=O)[C@@H](N)CCSC)C(=O)N[C@@H](CS)C(=O)N[C@@H](Cc1ccccc1)C(=O)N[C@@H](Cc1c[nH]c2ccccc12)C(=O)NCC(=O)O` [compound 46] (H-MSRMWFLICFWG-OH): the EC50 in data set [1] is under 7.5 µM. For the same compound, the viability in data set [2] turned out to be 101%.

In data set [1], `CC[C@H](C)[C@H](NC(=O)[C@H](CC(C)C)NC(=O)[C@H](Cc1ccccc1)NC(=O)[C@H](Cc1c[nH]c2ccccc12)NC(=O)[C@@H](N)CCSC)C(=O)N[C@@H](CO)C(=O)N[C@@H](Cc1ccccc1)C(=O)N[C@@H](Cc1c[nH]c2ccccc12)C(=O)N[C@@H](CCC(=O)O)C(=O)NCC(=O)O` [compound 47] (H-MWFLISFWEG-OH) gave an EC50 of under 7.5 µM. In addition, on β-catenin, the “β-Cat FP Hill slope” value worked out at 2.29 and the dissociation constant Kd lay in the range of 0.4 to 1 µM. In data set [2], the viability was found to be 103%.

Compound `CC[C@H](C)[C@H](NC(=O)[C@H](CC(C)C)NC(=O)[C@H](Cc1ccccc1)NC(=O)[C@H](Cc1c[nH]c2ccccc12)NC(=O)[C@@H](NC(=O)[C@H](CCCNC(=N)N)NC(=O)[C@H](CO)NC(=O)[C@@H](N)CCSC)[C@@H](C)O)C(=O)N[C@@H](CO)C(=O)N[C@@H](Cc1ccccc1)C(=O)N[C@@H](Cc1c[nH]c2ccccc12)C(=O)NCC(=O)O` [compound 48] (H-MSRTWFLISFWG-OH) showed a half-maximal effective concentration (EC50) in data set [1] of 7.5 to 15 µM. For the same compound, on β-catenin, the dissociation constant Kd was over 30 µM. Besides, the viability in data set [2] turned out to be 101%.

As to `CC[C@H](C)[C@H](NC(=O)[C@H](CC(C)C)NC(=O)[C@H](Cc1ccccc1)NC(=O)[C@H](Cc1c[nH]c2ccccc12)NC(=O)[C@@H](N)CCSC)C(=O)N[C@@H](CO)C(=O)N[C@@H](Cc1ccccc1)C(=O)N[C@@H](Cc1c[nH]c2ccccc12)C(=O)N[C@@H](CCCNC(=N)N)C(=O)NCC(=O)O` [compound 49] (H-MWFLISFWRG-OH), the EC50 in data set [1] was under 7.5 µM. In addition, at β-catenin, the Kd is over 30 µM. In addition, the viability in data set [2] was 103%.

For `CC[C@H](C)[C@H](NC(=O)[C@H](CC(C)C)NC(=O)[C@H](Cc1ccccc1)NC(=O)[C@H](C)N(C)C(=O)[C@H](CCSC)NC(=O)[C@H](CCCNC(=N)N)NC(=O)[C@H](CO)NC(=O)[C@@H](N)CCSC)C(=O)N[C@@H](CO)C(=O)N[C@@H](Cc1ccccc1)C(=O)N[C@@H](Cc1c[nH]c2ccccc12)C(=O)NCC(=O)O` [compound 50] (HELM PEPTIDE1{M.S.R.M.[meA].F.L.I.S.F.W.G}$$$$V2.0), the EC50 in data set [1] was over 30 µM. Moreover, on β-catenin, the “β-Cat FP Hill slope” value worked out at 0.76 and the Kd fell in the range of 1 to 10 µM. Moreover, in data set [2], the viability came out at 96.7%.

For the compound `CC[C@H](C)[C@H](NC(=O)[C@H](CC(C)C)NC(=O)[C@@H](NC(=O)[C@H](Cc1c[nH]c2ccccc12)NC(=O)[C@H](CCSC)NC(=O)[C@H](CCCNC(=N)N)NC(=O)[C@H](CO)NC(=O)[C@@H](N)CCSC)[C@@H](C)CC)C(=O)N[C@@H](CO)C(=O)N[C@@H](Cc1ccccc1)C(=O)N[C@@H](Cc1c[nH]c2ccccc12)C(=O)NCC(=O)O` [compound 51] (H-MSRMWILISFWG-OH), the half-maximal effective concentration (EC50) in data set [1] is 7.5 to 15 µM. Moreover, in data set [2], the viability turned out to be 98.5%.

Turning to `CC[C@H](C)[C@H](NC(=O)[C@H](CC(C)C)NC(=O)[C@H](Cc1ccccc1)NC(=O)[C@H](CC(C)C)NC(=O)[C@H](CCSC)NC(=O)[C@H](CCCNC(=N)N)NC(=O)[C@H](CO)NC(=O)[C@@H](N)CCSC)C(=O)N[C@@H](CO)C(=O)N[C@@H](Cc1ccccc1)C(=O)N[C@@H](Cc1c[nH]c2ccccc12)C(=O)NCC(=O)O` [compound 52] (H-MSRMLFLISFWG-OH), in data set [1], the EC50 was 15 to 22.5 µM. Moreover, the Kd on β-catenin was over 30 µM. In data set [2], the viability stood at 87.2%.

Regarding `CC[C@H](C)[C@H](NC(=O)[C@H](CC(C)C)NC(=O)[C@H](Cc1ccccc1)NC(=O)[C@H](Cc1c[nH]c2ccccc12)N(C)C(=O)[C@H](CCSC)NC(=O)[C@H](CCCNC(=N)N)NC(=O)[C@@H](NC(=O)[C@@H](N)CCSC)[C@@H](C)CC)C(=O)N[C@@H](CO)C(=O)N[C@@H](Cc1ccccc1)C(=O)N[C@@H](Cc1c[nH]c2ccccc12)C(=O)NCC(=O)O` [compound 53] (HELM PEPTIDE1{M.I.R.M.[meW].F.L.I.S.F.W.G}$$$$V2.0), in data set [1], the EC50 was over 30 µM. Besides, the Kd on β-catenin was over 30 µM. Also, in data set [2], the viability was 103%.

In the case of `CC[C@H](C)[C@H](NC(=O)[C@H](CC(C)C)NC(=O)[C@H](Cc1ccccc1)NC(=O)[C@H](Cc1c[nH]c2ccccc12)NC(=O)[C@H](CCSC)NC(=O)[C@H](CCCNC(=N)N)NC(=O)[C@H](CO)NC(=O)[C@@H](N)CCSC)C(=O)N[C@@H](CO)C(=O)N[C@@H](CO)C(=O)N[C@@H](Cc1c[nH]c2ccccc12)C(=O)NCC(=O)O` [compound 54] (H-MSRMWFLISSWG-OH), the EC50 in data set [1] lay within 15 to 22.5 µM. Also, at β-catenin, the “β-Cat FP Hill slope” value turned out to be 0.7 and the Kd was 1 to 10 µM. For the same compound, in data set [2], the viability was found to be 98.3%.

`CC[C@H](C)[C@H](NC(=O)[C@H](CC(C)C)NC(=O)[C@H](Cc1ccccc1)NC(=O)[C@H](Cc1c[nH]c2ccccc12)NC(=O)[C@@H](NC(=O)[C@H](CCCNC(=N)N)NC(=O)[C@H](CO)NC(=O)[C@@H](N)CCSC)[C@@H](C)CC)C(=O)N[C@@H](CO)C(=O)N[C@@H](Cc1ccccc1)C(=O)N[C@@H](Cc1c[nH]c2ccccc12)C(=O)NCC(=O)O` [compound 55] (H-MSRIWFLISFWG-OH) showed an EC50 in data set [1] of under 7.5 µM. Also, the dissociation constant Kd at β-catenin was over 30 µM. The viability in data set [2] amounted to 101%.
